Reference: ChEMBL document CHEMBL3638971, “Fused pyrimidines” (2015)
Where “and” joins values, the source holds several entries; their conditions need not be identical. Equal values may be shown once.

Columns and labels:
[1] = target: RAC-beta serine/threonine-protein kinase (Homo sapiens, UniProt P31751); assay: TR-FRET Assay: Akt2 inhibitory activity of compounds of the present invention was quantified employing the Akt2 TR-FRET assay as described in the following paragraphs.His-tagged human recombinant kinase full-length Akt2 expressed in insect cells and activated by PDK1 was purchased form Invitrogen (part number PV 3975). As substrate for the kinase reaction the biotinylated peptide biotin-Ahx- KKLNRTLSFAEPG (C-terminus in amide form) was used which can be purchased e.g. from the company Biosynthan GmbH (Berlinn-Buch, Germany). For the assay 50 nl of a 10Ofold concentrated solution of the test compound in DMSO was pipetted into a black low volume 384well microtiter plate (Greiner Bio- One, Frickenhausen, Germany), 2 ul of a solution of Akt2 in assay buffer [50 mM TRIS/HCI pH 7.5, 5 mM MgCI2, 1 mM dithiothreitol, 0.02% (v/v) Triton X-100 (Sigma)] were added and the mixture was incubated for 15 min at 22C to allow pre-binding of the test compounds to the enzyme before the start of the kinase reaction.
[2] = target: RAC-alpha serine/threonine-protein kinase (Homo sapiens, UniProt P31749); assay: TR-FRET Assay: Akt1 inhibitory activity of compounds of the present invention may be quantified0 employing the Akt1 TR-FRET assay as described in the following paragraphs. His-tagged human recombinant kinase full-length Akt1 expressed in insect cells was purchased form Invitrogen (part number PV 3599). As substrate for the kinase reaction the biotinylated peptide biotin-Ahx-KKLNRTLSFAEPG (C-terminus in am- ide form) was used which can be purchased e.g. from the company Biosynthan GmbH (Berlin-Buch, Germany).For the assay 50 nl of a IOOfold concentrated solution of the test compound in DMSO was pipetted into a black low volume 384well microtiter plate (Greiner Bio- One, Frickenhausen, Germany), 2 ul of a solution of Akt1 in assay buffer [50 mM TRIS/HCI pH 7.5, 5 mM MgCI2, 1 mM dithiothreitol, 0.02% (v/v) Triton X-100 (Sigma)] were added and the mixture was incubated for 15 min at 22C to allow pre-binding of the test compounds to the enzyme before the start of the kinase reaction.
Sequence of RAC-alpha serine/threonine-protein kinase (P31749 whole entry): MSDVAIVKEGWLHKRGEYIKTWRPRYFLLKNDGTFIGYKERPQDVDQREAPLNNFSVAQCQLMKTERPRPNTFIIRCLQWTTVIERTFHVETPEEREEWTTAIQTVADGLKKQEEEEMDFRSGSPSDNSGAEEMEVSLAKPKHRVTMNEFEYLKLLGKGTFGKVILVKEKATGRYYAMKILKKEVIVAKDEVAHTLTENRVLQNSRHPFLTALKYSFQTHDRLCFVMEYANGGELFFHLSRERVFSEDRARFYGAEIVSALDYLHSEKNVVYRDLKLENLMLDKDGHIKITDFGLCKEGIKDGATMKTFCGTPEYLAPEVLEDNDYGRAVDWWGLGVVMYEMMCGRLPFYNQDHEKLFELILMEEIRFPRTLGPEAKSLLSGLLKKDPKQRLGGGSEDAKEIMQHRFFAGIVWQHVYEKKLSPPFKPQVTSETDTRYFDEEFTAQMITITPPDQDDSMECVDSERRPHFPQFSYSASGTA

Sequence of RAC-beta serine/threonine-protein kinase (P31751 whole entry): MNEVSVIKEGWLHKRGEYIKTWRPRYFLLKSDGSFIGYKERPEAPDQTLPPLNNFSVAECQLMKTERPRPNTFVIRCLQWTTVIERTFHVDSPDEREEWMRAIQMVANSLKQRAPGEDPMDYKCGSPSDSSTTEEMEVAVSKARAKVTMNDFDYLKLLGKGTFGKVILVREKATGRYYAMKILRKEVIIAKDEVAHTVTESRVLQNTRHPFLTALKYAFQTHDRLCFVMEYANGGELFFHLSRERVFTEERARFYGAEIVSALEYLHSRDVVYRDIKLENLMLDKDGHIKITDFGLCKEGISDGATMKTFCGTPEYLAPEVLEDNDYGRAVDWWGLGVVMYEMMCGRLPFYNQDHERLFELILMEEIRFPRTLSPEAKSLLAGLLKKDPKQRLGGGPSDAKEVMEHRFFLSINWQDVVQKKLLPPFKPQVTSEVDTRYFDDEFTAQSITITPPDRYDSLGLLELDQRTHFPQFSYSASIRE

Structure (SMILES)	IC50 [1]	IC50 [2]
Cc1nc2nc(-c3ccc(CN4CC(c5n[nH]c(-c6ccccn6)n5)C4)cc3)c(-c3ccccc3)c(C)n2n1	17 nM	7 nM
Cc1cccc(-c2nc(C3CN(Cc4ccc(-c5nc6nc(C)nn6c(C)c5-c5ccccc5)cc4)C3)n[nH]2)n1	8 nM	10 nM
Cc1nc2nc(-c3ccc(CN4CC(c5n[nH]c(-c6ccccn6)n5)C4)cc3)c(-c3ccccc3)c(NC3CCC3)n2n1	374 nM	32 nM
CNc1c(-c2ccccc2)c(-c2ccc(CN3CC(c4n[nH]c(-c5cccc(C)n5)n4)C3)cc2)nc2nc(C)nn12	21 nM	11 nM
Cc1nc2nc(-c3ccc(CN4CC(c5n[nH]c(-c6ccccn6)n5)C4)cc3)c(-c3ccccc3)c(NC(C)C)n2n1	31 nM and 20 nM	15 nM and 9 nM
CSc1nc2nc(-c3ccc(CN4CC(c5n[nH]c(-c6ccccn6)n5)C4)cc3)c(-c3ccccc3)cn2n1	100 nM	5 nM
CSc1nc2nc(-c3ccc(CN4CCC(c5n[nH]c(-c6ccccn6)n5)CC4)cc3)c(-c3ccccc3)cn2n1	12 nM	7 nM
CSc1nc2nc(-c3ccc(CN4CCC(c5n[nH]c(-c6cccc(C)n6)n5)CC4)cc3)c(-c3ccccc3)cn2n1	4 nM	5 nM
CS(=O)(=O)c1nc2nc(-c3ccc(CN4CCC(c5n[nH]c(-c6ccccn6)n5)CC4)cc3)c(-c3ccccc3)cn2n1	102 nM	54 nM
